According to article PMC9602792, “Preclinical evaluation of the epithelial sodium channel inhibitor AZD5634 and implications on human translation” (American Journal of Physiology - Lung Cellular and …, 2022):
pEC50: −log10 of the molar value.

Experiments:
ENaC = biological target: T1, ENaC (Homo sapiens, UniProt P37088+P51168+P51170); assay: Ussing chamber Isc in F508del-homozygous CF HBEC cultures; assay type: cell-based
T1 construct: host or cells: primary normal human bronchial epithelial cells, ALI culture
T1 sequence (P37088 1-669): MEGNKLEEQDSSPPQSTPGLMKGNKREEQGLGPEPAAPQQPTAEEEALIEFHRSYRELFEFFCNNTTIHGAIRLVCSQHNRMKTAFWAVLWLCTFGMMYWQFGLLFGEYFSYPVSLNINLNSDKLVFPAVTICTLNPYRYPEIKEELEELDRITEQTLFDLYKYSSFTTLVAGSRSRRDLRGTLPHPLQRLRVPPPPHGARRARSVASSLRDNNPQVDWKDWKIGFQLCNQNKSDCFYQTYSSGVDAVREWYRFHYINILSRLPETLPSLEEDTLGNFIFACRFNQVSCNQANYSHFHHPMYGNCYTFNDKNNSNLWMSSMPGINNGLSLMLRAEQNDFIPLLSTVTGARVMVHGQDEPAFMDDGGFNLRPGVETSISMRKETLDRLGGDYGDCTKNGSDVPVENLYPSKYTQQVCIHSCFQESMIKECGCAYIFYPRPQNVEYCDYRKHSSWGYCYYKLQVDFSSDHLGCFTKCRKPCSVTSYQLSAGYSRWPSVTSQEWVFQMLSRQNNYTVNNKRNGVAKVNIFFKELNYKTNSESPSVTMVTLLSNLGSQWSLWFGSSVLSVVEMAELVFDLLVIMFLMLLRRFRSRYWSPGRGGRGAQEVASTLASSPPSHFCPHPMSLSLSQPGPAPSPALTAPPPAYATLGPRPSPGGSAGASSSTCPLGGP
T1 sequence (P51168 1-640): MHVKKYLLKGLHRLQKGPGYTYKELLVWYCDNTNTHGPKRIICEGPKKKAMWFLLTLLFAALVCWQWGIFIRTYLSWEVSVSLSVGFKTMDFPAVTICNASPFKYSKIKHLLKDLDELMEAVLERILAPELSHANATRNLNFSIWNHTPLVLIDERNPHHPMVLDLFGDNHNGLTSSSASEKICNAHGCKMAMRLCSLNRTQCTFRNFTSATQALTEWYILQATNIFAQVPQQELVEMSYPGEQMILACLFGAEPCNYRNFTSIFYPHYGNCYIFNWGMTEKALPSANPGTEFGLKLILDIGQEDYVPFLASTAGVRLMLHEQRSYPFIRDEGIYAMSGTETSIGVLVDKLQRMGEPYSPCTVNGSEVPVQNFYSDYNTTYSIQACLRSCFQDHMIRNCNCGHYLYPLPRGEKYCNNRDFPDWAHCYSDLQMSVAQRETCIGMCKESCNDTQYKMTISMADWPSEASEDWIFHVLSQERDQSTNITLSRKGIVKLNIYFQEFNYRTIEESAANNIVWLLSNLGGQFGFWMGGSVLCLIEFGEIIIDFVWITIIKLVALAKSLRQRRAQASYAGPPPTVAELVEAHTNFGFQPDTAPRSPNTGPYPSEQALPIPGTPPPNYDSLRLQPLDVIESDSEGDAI
T1 sequence (P51170 1-649): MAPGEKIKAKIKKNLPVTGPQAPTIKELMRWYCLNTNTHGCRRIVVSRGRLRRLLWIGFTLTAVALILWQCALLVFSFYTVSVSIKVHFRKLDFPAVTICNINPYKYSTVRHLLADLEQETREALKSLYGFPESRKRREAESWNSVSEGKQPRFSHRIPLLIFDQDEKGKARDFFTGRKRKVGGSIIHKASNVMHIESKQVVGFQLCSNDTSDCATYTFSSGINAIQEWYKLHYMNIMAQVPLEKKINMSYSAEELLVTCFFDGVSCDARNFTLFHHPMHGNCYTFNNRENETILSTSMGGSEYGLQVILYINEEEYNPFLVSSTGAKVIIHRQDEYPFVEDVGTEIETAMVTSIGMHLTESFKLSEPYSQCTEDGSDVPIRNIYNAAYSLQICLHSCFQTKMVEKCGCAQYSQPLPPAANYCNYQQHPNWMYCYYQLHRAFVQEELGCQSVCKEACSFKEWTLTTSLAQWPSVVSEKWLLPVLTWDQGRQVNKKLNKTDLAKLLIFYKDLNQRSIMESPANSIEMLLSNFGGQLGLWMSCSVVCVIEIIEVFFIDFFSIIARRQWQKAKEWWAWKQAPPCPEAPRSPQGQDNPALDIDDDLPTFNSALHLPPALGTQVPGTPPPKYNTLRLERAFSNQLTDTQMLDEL
Description: Using previously described techniques ([2], [37]), epithelial cells were harvested from excised lung tissue derived from CF donors homozygous for F508del CFTR, expanded, and grown until confluency was attained. […] To stimulate fresh mucus secretion and formation of an even ASL layer, the cells were washed 48–72 h before experimentation with PneumaCult ALI media (80 µL), added apically, and then aspirated following 30–45 min incubation at 37°C. The washing process was repeated with a 15-min incubation period and the mucus layer was allowed to reestablish, after which the cells were treated with 1 µL of AZD5634 (1 µM, apical), alone and in combination with lumacaftor and ivacaftor (luma/iva; 3 µM/10 µM, basolateral). PBS (1% DMSO, apical) served as a vehicle control. […] Only passage 1 and 2 monolayers were used for these studies.
CFTR-dependent ion transport electrophysiology was measured in HBEC cultures by Isc using modified P2300 Ussing chambers (Physiologic Instruments, San Diego, CA) as previously described ([37], [38]). […] All chambers were maintained at 37°C and agonist stimulation was initiated within 15 min of placement in the chambers.
Descriptive statistics were calculated and means compared using unpaired or paired t tests, or ANOVA, with post hoc analyses conducted for multiple comparisons where appropriate. For analyses of functional anatomy of en bloc trachea, a mixed linear model was used that corrected for within-animal correlation. All tests were two-sided and were computed using GraphPad Prism (GraphPad Software, Inc., La Jolla, CA). P-values <0.05 were considered significant. Statistics are reported as means ± SE, unless indicated otherwise.

[1] = tested on: sodium/hydrogen exchangers; design: method as in PMID 33974881; details: specificity unknown; cited from earlier work

pEC50 (ENaC; F508del-homozygous HBE ALI cultures, read-out: half maximal effective concentration (EC50), cumulative drug effect on Isc): 7.34
incremental Isc change (ENaC; at 100 nM): −6.4 ± 1.6
cumulative ΔIsc (ENaC; at the maximum concentration (10,000 nM)): −25.3 ± 5.9
further reduction in Isc upon acute addition of benzamil (ENaC; benzamil 10 μM after maximal concentration of test drug): no further appreciable reductions in Isc
Substance: AZD5634
effect on sodium/hydrogen exchangers [1]: blocks sodium/hydrogen exchangers
